Measurements taken from patent publication EP0041795A2, “Injectable composition of rapamycin” (AYERST, MCKENNA AND HARRISON INC., priority 1980, dated 1981).

Test: Solubility of rapamycin
Format: physicochemical

## CO[C@H]1C[C@@H]2CC[C@@H](C)[C@@](O)(O2)C(=O)C(=O)N2CCCC[C@H]2C(=O)O[C@H]([C@H](C)C[C@@H]2CC[C@@H](O)[C@H](OC)C2)CC(=O)[C@H](C)/C=C(\C)[C@@H](O)[C@@H](OC)C(=O)[C@H](C)C[C@H](C)/C=C/C=C/C=C/1C [Rapamycin]
Aqueous solutions
  solubility in aqueous solutions: virtually insoluble
Most surfactants, including the nonionic surfactants
  solubility in surfactants: insoluble
Rapamycin per se, polyoxyethylated glycerin hydroxy fatty acids
  solubility in polyoxyethylated glycerin hydroxy fatty acids: does not readily go into solution
